Assay results: PubChem BioAssay (NCI)
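Interpolation was linear, between the two tested concentrations surrounding the appropriate level; five concentrations were tested over 48 hours in 96-well plates. GI50: concentration for 50% inhibition of growth. TGI: concentration producing complete growth inhibition.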

What was measured:
Assay in all cases: growth of human tumour cells (NCI), 48 h; in the data active = GI50 below about 0.43 µM; inactive = the rest
[1] = tested on: OVCAR-3 ovarian
[2] = tested on: A498 renal
[3] = tested on: SR leukemia
[4] = tested on: NCI-H460 lung
[5] = tested on: NCI-H522 lung
[6] = tested on: SK-MEL-5 melanoma
[7] = tested on: CCRF-CEM leukemia
[8] = tested on: SW-620 colon
[9] = tested on: HS 578T breast
[10] = tested on: PC-3 prostate
[11] = tested on: OVCAR-5 ovarian
[12] = tested on: HCT-15 colon
[13] = tested on: A549 NSCLC
[14] = tested on: EKVX NSCLC
[15] = tested on: U251 CNS
[16] = tested on: T-47D breast
[17] = tested on: MCF7 breast
[18] = tested on: MDA-MB-435
[19] = tested on: SNB-19 CNS
[20] = tested on: HOP-92 NSCLC
[21] = tested on: 786-0 renal
[22] = tested on: M14 melanoma
[23] = tested on: HOP-62 NSCLC
[24] = tested on: TK-10 renal
[25] = tested on: NCI-H23 lung
[26] = tested on: UO-31 renal
[27] = tested on: MALME-3M melanoma
[28] = tested on: HCC-2998 colon
[29] = tested on: DU-145 prostate
[30] = tested on: MDA-MB-231 breast
[31] = tested on: K-562 leukemia
[32] = tested on: SF-295 CNS
[33] = tested on: RXF 393 renal
[34] = tested on: HT29 colon
[35] = tested on: HL-60(TB) leukemia
[36] = tested on: OVCAR-4 ovarian
[37] = tested on: NCI-H226 lung
[38] = tested on: UACC-62 melanoma
[39] = tested on: SK-MEL-2 melanoma
[40] = tested on: ACHN renal
[41] = tested on: SF-268 CNS
[42] = tested on: SF-539 CNS
[43] = tested on: CAKI-1 renal
[44] = tested on: OVCAR-8 ovarian
[45] = tested on: SK-MEL-28 melanoma
[46] = tested on: MOLT-4 leukemia
[47] = tested on: IGROV1 ovarian
[48] = tested on: RPMI-8226 leukemia
[49] = tested on: SNB-75 CNS
[50] = tested on: HCT-116 colon
[51] = tested on: KM12 colon
[52] = tested on: NCI/ADR-RES ovarian
[53] = tested on: BT-549 breast
[54] = tested on: LOX IMVI melanoma
[55] = tested on: SN12C renal
[56] = tested on: UACC-257 melanoma
[57] = tested on: COLO 205 colon
[58] = tested on: SK-OV-3 ovarian

O=C(NNc1nc2cc(F)cc(F)c2n2cccc12)c1ccncn1
inactive: GI50 [1] > 30 µM | GI50 [2] > 30 µM | GI50 [3] > 30 µM | GI50 [4] > 30 µM | GI50 [5] > 30 µM | GI50 [6] > 30 µM | GI50 [7] > 30 µM | GI50 [8] > 30 µM | GI50 [9] > 30 µM | GI50 [10] > 30 µM | GI50 [11] > 30 µM | GI50 [12] > 30 µM | GI50 [13] > 30 µM | GI50 [14] > 30 µM | GI50 [15] > 30 µM | GI50 [16] > 30 µM | GI50 [17] > 30 µM | GI50 [18] > 30 µM | GI50 [19] > 30 µM | GI50 [20] > 30 µM | GI50 [21] > 30 µM | GI50 [22] > 30 µM | GI50 [23] > 30 µM | GI50 [24] > 30 µM | GI50 [25] > 30 µM | GI50 [26] > 30 µM | GI50 [27] > 30 µM | GI50 [28] > 30 µM | GI50 [29] > 30 µM | GI50 [30] > 30 µM | GI50 [31] > 30 µM | GI50 [32] > 30 µM | GI50 [33] > 30 µM | GI50 [34] > 30 µM | GI50 [35] > 30 µM | GI50 [36] > 30 µM | GI50 [37] > 30 µM | GI50 [38] > 30 µM | GI50 [39] > 30 µM | GI50 [40] > 30 µM | GI50 [41] > 30 µM | GI50 [42] > 30 µM | GI50 [43] > 30 µM | GI50 [44] > 30 µM | GI50 [45] > 30 µM | GI50 [46] > 30 µM | GI50 [47] > 30 µM | GI50 [48] > 30 µM | GI50 [49] > 30 µM | GI50 [50] > 30 µM | GI50 [51] > 30 µM | GI50 [52] > 30 µM | GI50 [53] > 30 µM | GI50 [54] > 30 µM | GI50 [55] > 30 µM | GI50 [56] > 30 µM | GI50 [57] > 30 µM | GI50 [58] > 30 µM
> 30 µM: TGI [1] | TGI [2] | TGI [3] | TGI [4] | TGI [5] | TGI [6] | TGI [7] | TGI [8] | TGI [9] | TGI [10] | TGI [11] | TGI [12] | TGI [13] | TGI [14] | TGI [15] | TGI [16] | TGI [17] | TGI [18] | TGI [19] | TGI [20] | TGI [21] | TGI [22] | TGI [23] | TGI [24] | TGI [25] | TGI [26] | TGI [27] | TGI [28] | TGI [29] | TGI [30] | TGI [31] | TGI [32] | TGI [33] | TGI [34] | TGI [35] | TGI [36] | TGI [37] | TGI [38] | TGI [39] | TGI [40] | TGI [41] | TGI [42] | TGI [43] | TGI [44] | TGI [45] | TGI [46] | TGI [47] | TGI [48] | TGI [49] | TGI [50] | TGI [51] | TGI [52] | TGI [53] | TGI [54] | TGI [55] | TGI [56] | TGI [57] | TGI [58]
